Laboratory results published in US10112937B2, “P2X7 modulators and methods of use” (Janssen Pharmaceutica NV, priority 2013, dated 2018).

Biological target: human P2X7 (Homo sapiens (Human), UniProt Q99572)
Experiment: P2X7 antagonism in human PBMCs (IL-1β release after LPS + Bz-ATP, ELISA)
Type: cell-based
Details: test compound 10 μM

Sequence of human P2X7 (Q99572 whole entry): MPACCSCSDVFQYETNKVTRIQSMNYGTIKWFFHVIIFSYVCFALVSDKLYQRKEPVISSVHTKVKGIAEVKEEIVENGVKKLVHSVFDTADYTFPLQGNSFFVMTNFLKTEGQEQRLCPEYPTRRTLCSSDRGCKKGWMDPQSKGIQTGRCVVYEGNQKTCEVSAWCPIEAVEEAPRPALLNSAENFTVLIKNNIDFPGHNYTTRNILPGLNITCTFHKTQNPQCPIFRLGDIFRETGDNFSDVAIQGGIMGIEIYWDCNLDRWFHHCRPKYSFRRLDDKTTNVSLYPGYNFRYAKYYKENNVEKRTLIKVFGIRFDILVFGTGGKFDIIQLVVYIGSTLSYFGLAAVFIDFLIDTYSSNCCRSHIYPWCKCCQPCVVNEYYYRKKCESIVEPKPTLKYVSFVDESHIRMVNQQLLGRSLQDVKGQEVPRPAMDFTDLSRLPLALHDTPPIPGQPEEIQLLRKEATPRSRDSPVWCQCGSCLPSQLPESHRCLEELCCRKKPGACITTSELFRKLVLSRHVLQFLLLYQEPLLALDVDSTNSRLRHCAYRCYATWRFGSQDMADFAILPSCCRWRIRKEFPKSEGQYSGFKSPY

Compound | PBMC 10 μM (% control) (human PBMCs) | PBMC 10 μM (% control) (LPS 30 ng/ml + 0.5 mM Bz-ATP)
Cc1c(C(=O)N2CCc3c(nnn3-c3ncccn3)[C@H]2C)cccc1C(F)(F)F (single isomer, unassigned) [Example 188, (R*)-(4-methyl-1-(pyrimidin-2-yl)-6,7-dihydro-1H-[1,2,3]triazolo[4,5-c]pyridin-5(4H)-yl)(2-methyl-3-(trifluoromethyl)phenyl)methanone] | −0.7 | −0.7
C[C@@H]1c2nnn(-c3ncc(F)cn3)c2CCN1C(=O)c1cccc(C(F)(F)F)c1F (single isomer, unassigned) [Example 190, (R*)-(2-fluoro-3-(trifluoromethyl)phenyl)(1-(5-fluoropyrimidin-2-yl)-4-methyl-6,7-dihydro-1H-[1,2,3]triazolo[4,5-c]pyridin-5(4H)-yl)methanone] | 7.1 | –
C[C@H]1c2ncn(-c3ccccn3)c2CCN1C(=O)c1cccc(Cl)c1Cl (single isomer, unassigned) [Example 191, (S*)-(2,3-Dichlorophenyl)(4-methyl-1-(pyridin-2-yl)-6,7-dihydro-1H-imidazo[4,5-c]pyridin-5(4H)-yl)methanone] | 5.2 | –
C[C@@H]1c2ncn(-c3ccccn3)c2CCN1C(=O)c1cccc(Cl)c1Cl (single isomer, unassigned) [Example 192, (R*)-(2,3-Dichlorophenyl)(4-methyl-1-(pyridin-2-yl)-6,7-dihydro-1H-imidazo[4,5-c]pyridin-5(4H)-yl)methanone] | −6.3 | −6.3
C[C@@H]1c2ncn(-c3ncc(F)cn3)c2CCN1C(=O)c1cccc(C(F)(F)F)c1Cl (single isomer, unassigned) [Example 193, (R*)-(2-Chloro-3-(trifluoromethyl)phenyl)(1-(5-fluoropyrimidin-2-yl)-4-methyl-6,7-dihydro-1H-imidazo[4,5-c]pyridin-5(4H)-yl)methanone] | 1.4 | 1.4
Cc1c(C(=O)N2CCc3c(nnn3-c3ncccn3)[C@@H]2C)cccc1C(F)(F)F (single isomer, unassigned) [Example 197, (S*)-(4-methyl-1-(pyrimidin-2-yl)-6,7-dihydro-1H-[1,2,3]triazolo[4,5-c]pyridin-5(4H)-yl)(2-methyl-3-(trifluoromethyl)phenyl)methanone] | 2.1 | –
C[C@@H]1Cc2c(nnn2-c2ncc(F)cn2)CN1C(=O)c1ccc(F)c(Cl)c1Cl (single isomer, unassigned) [Example 214, (6R*)-5-[(2,3-Dichloro-4-fluorophenyl)carbonyl]-1-(5-fluoropyrimidin-2-yl)-6-methyl-4,5,6,7-tetrahydro-1H-[1,2,3]triazolo[4,5-c]pyridine] | 8.2 | –
C[C@H]1Cc2c(nnn2-c2ncc(F)cn2)CN1C(=O)c1ccc(F)c(Cl)c1Cl (single isomer, unassigned) [Example 215, (6S*)-5-[(2,3-Dichloro-4-fluorophenyl)carbonyl]-1-(5-fluoropyrimidin-2-yl)-6-methyl-4,5,6,7-tetrahydro-1H-[1,2,3]triazolo[4,5-c]pyridine] | 2.7 | –
C[C@H]1Cc2c(nnn2-c2ncc(F)cn2)CN1C(=O)c1ccc(Cl)c(F)c1Cl (single isomer, unassigned) [Example 218, (6S*)-5-[(2,4-Dichloro-3-fluorophenyl)carbonyl]-1-(5-fluoropyrimidin-2-yl)-6-methyl-4,5,6,7-tetrahydro-1H-[1,2,3]triazolo[4,5-c]pyridine] | 6.1 | –
C[C@@H]1c2n[nH]c(-c3ncc(F)cn3)c2CCN1C(=O)c1cccc(C(F)(F)F)c1Cl (single isomer, unassigned) [Example 223, (R*)-(2-chloro-3-(trifluoromethyl)phenyl)(3-(5-fluoropyrimidin-2-yl)-7-methyl-4,5-dihydro-2H-pyrazolo[3,4-c]pyridin-6(7H)-yl)methanone] | 1.8 | –
COCCn1ccc(-n2nnc3c2CCN(C(=O)c2cccc(C(F)(F)F)c2Cl)[C@H]3C)n1 (single isomer, unassigned) [Example 249, (S*)-(2-Chloro-3-(trifluoromethyl)phenyl)(1-(1-(2-methoxyethyl)-1H-pyrazol-3-yl)-4-methyl-6,7-dihydro-1H-[1,2,3]triazolo[4,5-c]pyridin-5(4H)-yl)methanone] | 5.1 | –
C[C@H]1c2nnn(-c3ncccn3)c2CCN1C(=O)c1cccc(C(F)(F)F)c1F (single isomer, unassigned) [Example 270, (S*)-(2-fluoro-3-(trifluoromethyl)phenyl)(4-methyl-1-(pyrimidin-2-yl)-6,7-dihydro-1H-[1,2,3]triazolo[4,5-c]pyridin-5(4H)-yl)methanone] | 47.9 | –
Cc1nc(-n2nnc3c2CCN(C(=O)c2cccc(C(F)(F)F)c2Cl)[C@@H]3C)ncc1F (single isomer, unassigned) [Example 305, (R*)-(2-chloro-3-(trifluoromethyl)phenyl)(1-(5-fluoro-4-methylpyrimidin-2-yl)-4-methyl-6,7-dihydro-1H-[1,2,3]triazolo[4,5-c]pyridin-5(4H)-yl)methanone] | 0.9 | –
CCOc1cccnc1-n1nnc2c1CCN(C(=O)c1cccc(C(F)(F)F)c1Cl)[C@@H]2C (single isomer, unassigned) [Example 316, (R*)-(2-chloro-3-(trifluoromethyl)phenyl)(1-(3-ethoxypyridin-2-yl)-4-methyl-6,7-dihydro-1H-[1,2,3]triazolo[4,5-c]pyridin-5(4H)-yl)methanone] | −9.6 | –

The next lines start with the values.

PBMC 10 μM (% control) (human PBMCs) | PBMC 10 μM (% control) (LPS 30 ng/ml + 0.5 mM Bz-ATP) | Compound
−3.1 | – | C[C@H]1Cc2c(nnn2-c2cc(F)ccn2)CN1C(=O)c1cccc(Cl)c1Cl (single isomer, unassigned) [Example 196, (6S*)-5-[(2,3-Dichlorophenyl)carbonyl]-1-(4-fluoropyridin-2-yl)-6-methyl-4,5,6,7-tetrahydro-1H-[1,2,3]triazolo[4,5-c]pyridine]
1.3 | – | C[C@@H]1Cc2c(nnn2-c2cc(F)ccn2)CN1C(=O)c1cccc(C(F)(F)F)c1Cl (single isomer, unassigned) [Example 198, (6R*)-5-{[2-Chloro-3-(trifluoromethyl)phenyl]carbonyl}-1-(4-fluoropyridin-2-yl)-6-methyl-4,5,6,7-tetrahydro-1H-[1,2,3]triazolo[4,5-c]pyridine]
0.0 | – | C[C@H]1Cc2c(nnn2-c2cc(F)ccn2)CN1C(=O)c1cccc(C(F)(F)F)c1Cl (single isomer, unassigned) [Example 199, (6S*)-5-{[2-Chloro-3-(trifluoromethyl)phenyl]carbonyl}-1-(4-fluoropyridin-2-yl)-6-methyl-4,5,6,7-tetrahydro-1H-[1,2,3]triazolo[4,5-c]pyridine]
45.0 | – | Cc1c(C(=O)N2Cc3nnn(-c4ncc(F)cn4)c3C[C@H]2C)cccc1C(F)(F)F (single isomer, unassigned) [Example 207, (6R*)-1-(5-Fluoropyrimidin-2-yl)-6-methyl-5-{[2-methyl-3-(trifluoromethyl)phenyl]carbonyl}-4,5,6,7-tetrahydro-1H-[1,2,3]triazolo[4,5-c]pyridine]
58.0 | – | Cc1cccc(-n2nnc3c2CCN(C(=O)c2cccc(C(F)(F)F)c2Cl)[C@@H]3C)n1 (single isomer, unassigned) [Example 226, (R*)-(2-chloro-3-(trifluoromethyl)phenyl)(4-methyl-1-(6-methylpyridin-2-yl)-6,7-dihydro-1H-[1,2,3]triazolo[4,5-c]pyridin-5(4H)-yl)methanone]
−0.4 | – | Cc1cccc(-n2nnc3c2CCN(C(=O)c2cccc(C(F)(F)F)c2Cl)[C@H]3C)n1 (single isomer, unassigned) [Example 227, (S*)-(2-chloro-3-(trifluoromethyl)phenyl)(4-methyl-1-(6-methylpyridin-2-yl)-6,7-dihydro-1H-[1,2,3]triazolo[4,5-c]pyridin-5(4H)-yl)methanone]
7.5 | – | C[C@H]1Cc2c(nnn2-c2ncc(F)cn2)CN1C(=O)c1cc(C(F)(F)F)ccc1F (single isomer, unassigned) [Example 232, (S*)-(2-fluoro-5-(trifluoromethyl)phenyl)(1-(5-fluoropyrimidin-2-yl)-6-methyl-6,7-dihydro-1H-[1,2,3]triazolo[4,5-c]pyridin-5(4H)-yl)methanone]
−5.5 | – | Cc1ccc(-n2nnc3c2CCN(C(=O)c2cccc(C(F)(F)F)c2Cl)[C@@H]3C)nc1 (single isomer, unassigned) [Example 255, (R*)-(2-chloro-3-(trifluoromethyl)phenyl)(4-methyl-1-(5-methylpyridin-2-yl)-6,7-dihydro-1H-[1,2,3]triazolo[4,5-c]pyridin-5(4H)-yl)methanone]
−7.1 | – | Cc1cccnc1-n1nnc2c1CCN(C(=O)c1cccc(C(F)(F)F)c1Cl)[C@@H]2C (single isomer, unassigned) [Example 291, (R*)-(2-chloro-3-(trifluoromethyl)phenyl)(4-methyl-1-(3-methylpyridin-2-yl)-6,7-dihydro-1H-[1,2,3]triazolo[4,5-c]pyridin-5(4H)-yl)methanone]
−8.1 | – | CCc1ccnc(-n2nnc3c2CCN(C(=O)c2cccc(C(F)(F)F)c2Cl)[C@@H]3C)n1 (single isomer, unassigned) [Example 294, (R*)-(2-chloro-3-(trifluoromethyl)phenyl)(1-(4-ethylpyrimidin-2-yl)-4-methyl-6,7-dihydro-1H-[1,2,3]triazolo[4,5-c]pyridin-5(4H)-yl)methanone]
4.8 | – | CCOc1cccnc1-n1nnc2c1CCN(C(=O)c1cccc(C(F)(F)F)c1Cl)[C@H]2C (single isomer, unassigned) [Example 317, (S*)-(2-chloro-3-(trifluoromethyl)phenyl)(1-(3-ethoxypyridin-2-yl)-4-methyl-6,7-dihydro-1H-[1,2,3]triazolo[4,5-c]pyridin-5(4H)-yl)methanone]
